{"source": "patent US6667040B2", "about": "“Bovine footrot treatment and prevention” (University Technologies International, Inc., priority 1997, dated 2003)", "type_in_all_cases": "cell-based", "key": {"[1]": {"test_system": "Isolates of Porphyromonas levii", "assay": "Penicillin G susceptibility of Porphyromonas levii isolates"}, "[2]": {"test_system": "Prevotella intermedia (5-2)", "assay": "Penicillin G disc diffusion susceptibility test", "conditions": "with regrowth"}, "[3]": {"test_system": "Prevotella intermedia (8-2)", "assay": "Penicillin G disc diffusion susceptibility test", "conditions": "with regrowth"}, "[4]": {"test_system": "Prevotella intermedia (14-7)", "assay": "Penicillin G disc diffusion susceptibility test"}, "[5]": {"test_system": "Bacteroides fragilis (7-6)", "assay": "Penicillin G disc diffusion susceptibility test"}, "[6]": {"conditions": "disc with 10 units penicillin G"}}}
{"smiles": "CC1(C)S[C@@H]2[C@H](NC(=O)Cc3ccccc3)C(=O)N2[C@H]1C(=O)O", "note": "[penicillin G]", "values": [{"measurement": "susceptibility to penicillin G", "setting": "[1]", "value": "sensitive"}, {"measurement": "P2 zone of inhibition", "setting": "[2]; disc with 2 units penicillin G", "value": 22, "unit": "mm"}, {"measurement": "P10 zone of inhibition", "setting": "[2]; [6]", "value": "28 (with regrowth) mm"}, {"measurement": "P2 zone of inhibition", "setting": "[3]; disc with 2 units penicillin G", "value": 27, "unit": "mm"}, {"measurement": "P10 zone of inhibition", "setting": "[3]; [6]", "value": "35 (with regrowth) mm"}, {"measurement": "P2 zone of inhibition", "setting": "[4]; disc with 2 units penicillin G", "value": "34 (with mm"}, {"measurement": "regrowth within P2 zone of inhibition", "setting": "[4]; disc with 2 units penicillin G, regrowth around the disc", "value": 22, "unit": "mm regrowth)"}, {"measurement": "P10 zone of inhibition", "setting": "[4]; [6]", "value": 38, "unit": "mm"}, {"measurement": "regrowth within P10 zone of inhibition", "setting": "[4]; disc with 10 units penicillin G, regrowth around the disc", "value": 23, "unit": "mm"}, {"measurement": "susceptibility to penicillin", "setting": "[5]; disc diffusion", "value": "clearly resistant"}, {"measurement": "P2 zone of inhibition", "setting": "[5]; disc with 2 units penicillin G", "value": 0, "unit": "mm"}, {"measurement": "P10 zone of inhibition", "setting": "[5]; [6]", "value": 0, "unit": "mm"}]}
